This note sets out measurements from patent publication US9879043B1, “Synthesis of non-natural cofactor analogs of S-adenosyl-L-methionine using methionine adenosyltransferase” (University of Kentucky Research Foundation, priority 2013, dated 2018).

SMILES strings stand for the structures. Read-outs that look alike come from different tables or passages of the source.

Experiment [1] deals with Escherichia coli MAT (eMAT) (Escherichia coli, UniProt P0A817). Description: MAT assay, turnover of S/Se-Met analogs to S(Se)AM analogs (RP-HPLC end point). The experiment is classed as biochemical. The settings on record: 2 mM Met analog, 1 mM ATP, 5 μM MAT, pH 8, 4 h, 37° C., average of two assays. As for the experimental part:
Standard uniform assay conditions (2 mM Met analog, 1 mM ATP, 5 μM MAT, 25 mM Tris, 5 mM MgCl2, 50 mM KCl, pH 8, 4 h) were adopted to facilitate this broad assessment. For the thermophilic counterpart (mMAT), reactions were conducted at 65° C., while all other reactions were incubated at 37° C. Production of SAM analogs was determined by an RP-HPLC end point assay to afford complete analysis of the desired SAM analog and/or any corresponding degradation products known to directly derive from the desired SAM analog intermediate. Putative SAM analog and SAM-derived degradative product formation was subsequently confirmed via high-resolution mass spectrometry (HRMS) analysis for all positive reactions (see Table 2).
To monitor MAT reactions, analytical RP HPLC employed a Luna C18 column (5 μm, 4.6 mm×250 mm; Phenomenex, Torrance, Calif., USA) [gradient of 10% B to 40% B over 15 min, 40% B to 75% B over 5 min (A=10 mM NaH2PO4, 5 mM octane sulfonic acid, pH was adjusted to 3.5 using phosphoric acid; B=acetonitrile) flow rate=1 mL min^−1; A254].
In vitro MAT reactions were conducted in a volume of 50 μl with 2 mM S/Se-alkylated analog (compounds 2-30), 1 mM ATP and 5 μM purified MAT in 25 mM Tris buffer pH 8.0, 5 mM MgCl2, 50 mM KCl for 4 h. The sMAT and mMAT reactions were conducted at 65° C. while hMATs and eMAT were incubated at 37° C. Reactions were quenched by adding an equal volume of methanol followed by centrifugation (10,000×g for 15 min) to remove the precipitated protein and product formation for each reaction was subsequently analyzed by RP-HPLC using Method D (FIG. 15, first column). For each reaction, percent yield was based upon the integration of species at 254 nm and calculated by dividing the integrated area of product and/or decomposed product by the sum of integrated area of product and/or decomposed product and the remaining substrate. The assays were repeated twice under identical conditions, and Table 2 (and FIG. 5) represents an average value of two assays. The inclusion of adenine and 5′-R-thio-5′-adenosine in these calculations is based upon the established SAM and ATP chemical decomposition pathways which indicate adenine and 5′-R-thio-5′-adenosine to only derive from SAM (not ATP). All putative products were subsequently confirmed by high resolution electrospray ionization (ESI) mass spectra with positive (+) and/or negative (−) mode.

Experiment [2] concerns the target T1, Sulfolobus solfataricus MAT (sMAT) (Saccharolobus solfataricus, UniProt Q980S9).
T1 sequence (Q980S9 1-404): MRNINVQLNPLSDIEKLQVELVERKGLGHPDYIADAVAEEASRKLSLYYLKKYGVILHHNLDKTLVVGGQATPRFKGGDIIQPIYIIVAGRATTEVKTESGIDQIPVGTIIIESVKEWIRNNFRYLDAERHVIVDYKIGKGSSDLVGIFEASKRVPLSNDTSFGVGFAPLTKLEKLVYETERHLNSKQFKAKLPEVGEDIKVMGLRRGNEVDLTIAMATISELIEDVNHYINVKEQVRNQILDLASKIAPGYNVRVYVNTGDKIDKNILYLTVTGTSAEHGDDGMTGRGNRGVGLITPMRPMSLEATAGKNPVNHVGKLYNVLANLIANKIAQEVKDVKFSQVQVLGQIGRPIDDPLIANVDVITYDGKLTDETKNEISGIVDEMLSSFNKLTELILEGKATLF
Type of experiment: biochemical. The settings on record: 2 mM analog, 1 mM ATP, 5 μM sMAT, pH 8.0, 4 h at 65° C., average of two assays. Here is the method:
In-vitro sMAT assay: In vitro sMAT reactions were conducted in a volume of 50 μl with 2 mM S/Se-alkylated analog, 1 mM ATP and 5 μM purified sMAT in 25 mM Tris buffer pH 8.0, 5 mM MgCl2, 50 mM KCl for 4 h at 65° C. Reactions were quenched by adding an equal volume of methanol followed by centrifugation (10,000×g for 15 min) to remove the precipitated protein and product formation for each reaction was subsequently analyzed by reverse phase HPLC (RP-HPLC) using method described below. For each reaction, percent yield was based upon the integration of species at 254 nm and calculated by dividing the integrated area of product and/or decomposed product by the sum of integrated area of product and/or decomposed product and the remaining substrate. The assays were repeated twice under identical conditions, and Table 4 (and FIG. 17) represents an average value of two assays. The inclusion of adenine and 5′-R-thio-5′-adenosine in these calculations is based upon the established SAM and ATP chemical decomposition pathways which indicate adenine and 5′-R-thio-5′-adenosine to only derive from SAM (not ATP). All putative products were subsequently confirmed by high resolution electrospray ionization (ESI) mass spectra with positive (+) and/or negative (−) mode.
RP-HPLC method: Reactions were quenched by the addition of equal volume of methanol followed by centrifugation at 10,000 g for 15 min to remove precipitated protein before applying on an analytical Varian ProStar HPLC [Luna C18 column, 5 μm, 4.6 mm×250 mm; Phenomenex, Torrance, Calif., USA; gradient of 10% B to 40% B over 15 min, 40% B to 75% B over 5 min (A=10 mM NaH2PO4, 5 mM octane sulfonic acid, pH was adjusted to 3.5 using phosphoric acid; B=acetonitrile) flow rate=1 mL min^−1; A254].

Sequence of Escherichia coli MAT (eMAT) (P0A817 whole entry): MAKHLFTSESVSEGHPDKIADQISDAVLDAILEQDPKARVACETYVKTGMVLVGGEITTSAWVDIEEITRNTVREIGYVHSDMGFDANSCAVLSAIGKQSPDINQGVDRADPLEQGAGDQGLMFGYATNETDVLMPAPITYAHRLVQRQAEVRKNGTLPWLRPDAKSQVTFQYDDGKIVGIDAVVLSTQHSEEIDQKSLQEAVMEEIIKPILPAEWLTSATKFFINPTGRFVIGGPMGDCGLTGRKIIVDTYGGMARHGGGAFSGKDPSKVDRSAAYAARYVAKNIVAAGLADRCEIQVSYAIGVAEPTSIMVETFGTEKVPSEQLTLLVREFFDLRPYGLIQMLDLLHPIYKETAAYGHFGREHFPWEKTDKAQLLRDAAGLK

Take `CCSCC[C@H](N)C(=O)O` [compound 3, (2S)-2-amino-4-(ethylsulfanyl)butanoic acid]: the “Percentage Turn-over eMAT” value in experiment [1] is on record as 8%; in experiment [1] (listed as ethionine) it was 10%. Besides, the “Percentage Turn-Over (sMAT)” value in experiment [2] is 84%; in experiment [2] (listed as ethionine), about 100%.
